Here are results for one molecule from patent US20240174718A1, “RYANODINE RECEPTOR INHIBITOR COMPOUNDS AND METHODS RELATING THERETO” (Vanderbilt University, priority 2022, published 2024).

The structures appear in SMILES notation. Where two headings read alike, the source gives them in different places.

One data set addresses T1, RyR2 (Mus musculus, UniProt E9Q401).
T1 construct: spontaneous openings of intracellular RyR2 Ca^2+ release channels; endogenous in cells; host or cells: ventricular cardiomyocytes isolated from Casq2-/- mice (saponin-permeabilized in A1, intact in A7)
Put plainly: Intracellular Ca2+ measurements / spontaneous Ca2+ release in intact Casq2-/- cardiomyocytes. In kind it is cell-based. Here is the method:
FIGS. 4(A-G) show intracellular Ca2+ measurements from intact Casq2−/− cardiomyocytes. […] For panels A-D and G, N=26, 30, 30, 30, and 31 cells for DMSO, 0.03, 0.1, 1, and 3 μM ent-B1, respectively. For panels E and F, N=14, 27, 29, 29, and 30 cells for DMSO, 0.03, 0.1, 1, and 3 μM ent-B1, respectively. Data are shown as mean±SD with individual data points.
FIGS. 10(A-B) show the spontaneous Ca^2+ release in intact mouse Casq2^−/− cardiomyocytes. […] Cells were field stimulated at 3 Hz for 20 s before recording. Blue marks indicate final stimulations of pacing train, arrows SCR events. Recording duration was 40 s before 10 mM caffeine application to assess total SR Ca^2+ content. […] Data are shown as mean±SD.
Intracellular Ca^2+ measurements in intact cardiomyocytes—Ventricular cardiomyocytes were isolated from two male 10-week old and one female 13-week old Casq2^−/− mouse as described previously (Knollmann et al., 2006). Cardiomyocytes were pre-incubated for 2 hours with DMSO or ent-B1. Myocytes were then loaded with Fura-2 acetoxymethyl ester (Fura-2 AM; Invitrogen) as described previously (Batiste et al., 2019). Briefly, isolated single ventricular myocytes were incubated with 2 μM Fura-2 AM for 7 minutes to load the indicator in the cytosol. Myocytes were then washed twice for 10 minutes with normal Tyrode (NT) solution containing 250 μM probenecid (all solutions also contained either vehicle [DMSO] or ent-B1). The composition of NT used for Fura-2 loading and washing was (in mM): 134 NaCl, 5.4 KCl, 1.2 CaCl2, 1 MgCl2, 10 glucose, and 10 HEPES, pH adjusted to 7.4 with NaOH. After Fura-2 loading, all experiments were conducted in NT solution containing 1 μM isoproterenol and 2 mM CaCl2. Fura2-loaded myocytes were electrically paced at 3 Hz field stimulation and Ca transients were recorded for 20 seconds followed by no electrical stimulation for 40 seconds to record spontaneous Ca release events. After that, myocytes were perfused with 10 mM caffeine in NT solution for 5 seconds to estimate total SR Ca content. Fura-2 was measured using a dual-beam excitation fluorescence photometry setup (IonOptix Corp.) and analyzed using commercially available data analysis software (IonWizard, IonOptix, Milton, MA). All experiments were conducted at room temperature.
All tests were two-sided and a p-value cutoff of <0.05 was used to denote significance. Concentration-response curves for RyR2 single-channel, [^3H]ryanodine ligand binding and intact myocyte assays were generated using non-linear regression with the equation: Y=Bottom+(Top−Bottom)/(1+(IC50/X)^HillSlope) using least square regression, no weighting, and no constrains on the parameters. The distributions of relative RyR2 open probability at each [ent-B1] were normalized by taking the log of each sample. For the 3×3 crossover in vivo ECG study, a pre-test was conducted using a mixed model with fixed effects of sequence and period; mice were treated as random effects.

Data set [1] is described as follows: In vivo pharmacokinetic study after intraperitoneal administration. Set-up: species or system mouse. The following applies: for half-life: 3 mg/kg. Here is the method: FIGS. 11(A-B) show in vivo pharmacokinetics in mice for a compound of the present invention. […] N=3 mice. Plasma collected serially at 0.167, 0.333. 0.5, 1, 3, and 8 hours post-administration. […] Individual data points (grey) shown alongside mean values with connecting lines.
In vivo pharmacokinetic study—The pharmacokinetic study was carried out by a contract research organization, Pharmaron, Inc. Mice were housed with free access to food and water. All protocols and procedures were compliant with Animal care and Use Application approved by the Institution Animal Care and Use Committee of Pharmaron, Inc., (protocol #PH-DMPK-VUMC-22-003) following the guidance of the Association for Assessment and Accreditation of Laboratory Animal Care (AAALAC). An ent-B1 dose of 3 mg/kg (drug/body weight) was used. Three male CDI mice, age 6-8 weeks, were selected for the study. Mice were injected intraperitoneally with ent-B1 dissolved in solution containing 10% Tween 20, 10% DMSO, 40% water, and 40% PEG-400 (v/v, 5 mL/kg), with a final concentration of 0.6 mg/mL. 30 μL of blood was collected from each animal at 10, 20, 30, 60, 180, and 480 minutes following drug administration and centrifuged at 5000×g, 4° C. for 5 minutes to obtain plasma. The samples were stored at −75±15° C. until analysis.
LC-MS/MS analysis of ent-B1—LC-MS/MS with electronspray ionization in the positive ion mode setting was used to detect ent-B1 followed by multiple reaction monitoring of precursor and product ions as follows: ent-B1 (mass-to-charge ratio [m/z] 640.18 to 214.00). Mouse plasma was quantified using nine standards (0.5-1000 ng/ml) and four quality control levels (1, 2, 50, 800 ng/ml) prepared independently of those used for the standard curve. 20 μL of standards, quality control samples, and unknown samples (10 μL plasma and 10 μL blank solution) were added to 200 μL acetonitrile containing internal standard (dexamethasone; [m/z] 393.40 to 373.30) for protein precipitation. The samples were vortexed for 30 seconds, centrifuged for 15 minutes at 4000 rpm and […], and the supernatant was diluted five times with water. Samples were then loaded into SIL-30AC autosampler and 10 μL was injected into a Shimadzu LC-30AD Series HPLC coupled to an AB Sciex Triple Quad 5500 mass spectrometer. Analytes were separated on a Raptor Biphenyl column (50×2.1 mm, 2.7 um) using a 95:5 (v/v) mobile phase mixture of 0.1% formic acid in water (mobile phase A) and 0.1% formic acid in acetonitrile (mobile phase B) at the flow rate of 0.6 ml/min. The gradient for mobile phase B was increased to 95% over 1.4 minutes with a total run time of 2.5 minutes for each sample. All quality controls and standards met the following acceptance criteria 1) standard curve of at least five standards are within 15% of their nominal concentrations and at least 50% at each quality control level (low, medium, and high) were within 15% of their nominal concentrations.
Pharmacokinetic analysis—Plasma concentrations of ent-B1 at each time point were imported to Phoenix WinNonlin® 8.0 software (Certara USA, Inc., Princeton, NJ). Plasma concentration time profiles for individual animals were analyzed by noncompartmental analysis using model 200 (Plasma; Single Extravascular Dose; Linear Log Trapezoidal Method) to approximate the elimination rate constant (ke), half-life (T1/2), maximum observed plasma concentration (Cmax), time to maximum observed plasma concentration (Tmax), the area under the plasma concentration-time curve from zero to infinity (AUCinf).

Setting [2] is: 3 μM (only the highest concentration tested).
The mark [3] stands for this setting: male, mouse, plasma, ip, 3 mg/kg intraperitoneal, CD1 mice.

T1 sequence (E9Q401 whole entry): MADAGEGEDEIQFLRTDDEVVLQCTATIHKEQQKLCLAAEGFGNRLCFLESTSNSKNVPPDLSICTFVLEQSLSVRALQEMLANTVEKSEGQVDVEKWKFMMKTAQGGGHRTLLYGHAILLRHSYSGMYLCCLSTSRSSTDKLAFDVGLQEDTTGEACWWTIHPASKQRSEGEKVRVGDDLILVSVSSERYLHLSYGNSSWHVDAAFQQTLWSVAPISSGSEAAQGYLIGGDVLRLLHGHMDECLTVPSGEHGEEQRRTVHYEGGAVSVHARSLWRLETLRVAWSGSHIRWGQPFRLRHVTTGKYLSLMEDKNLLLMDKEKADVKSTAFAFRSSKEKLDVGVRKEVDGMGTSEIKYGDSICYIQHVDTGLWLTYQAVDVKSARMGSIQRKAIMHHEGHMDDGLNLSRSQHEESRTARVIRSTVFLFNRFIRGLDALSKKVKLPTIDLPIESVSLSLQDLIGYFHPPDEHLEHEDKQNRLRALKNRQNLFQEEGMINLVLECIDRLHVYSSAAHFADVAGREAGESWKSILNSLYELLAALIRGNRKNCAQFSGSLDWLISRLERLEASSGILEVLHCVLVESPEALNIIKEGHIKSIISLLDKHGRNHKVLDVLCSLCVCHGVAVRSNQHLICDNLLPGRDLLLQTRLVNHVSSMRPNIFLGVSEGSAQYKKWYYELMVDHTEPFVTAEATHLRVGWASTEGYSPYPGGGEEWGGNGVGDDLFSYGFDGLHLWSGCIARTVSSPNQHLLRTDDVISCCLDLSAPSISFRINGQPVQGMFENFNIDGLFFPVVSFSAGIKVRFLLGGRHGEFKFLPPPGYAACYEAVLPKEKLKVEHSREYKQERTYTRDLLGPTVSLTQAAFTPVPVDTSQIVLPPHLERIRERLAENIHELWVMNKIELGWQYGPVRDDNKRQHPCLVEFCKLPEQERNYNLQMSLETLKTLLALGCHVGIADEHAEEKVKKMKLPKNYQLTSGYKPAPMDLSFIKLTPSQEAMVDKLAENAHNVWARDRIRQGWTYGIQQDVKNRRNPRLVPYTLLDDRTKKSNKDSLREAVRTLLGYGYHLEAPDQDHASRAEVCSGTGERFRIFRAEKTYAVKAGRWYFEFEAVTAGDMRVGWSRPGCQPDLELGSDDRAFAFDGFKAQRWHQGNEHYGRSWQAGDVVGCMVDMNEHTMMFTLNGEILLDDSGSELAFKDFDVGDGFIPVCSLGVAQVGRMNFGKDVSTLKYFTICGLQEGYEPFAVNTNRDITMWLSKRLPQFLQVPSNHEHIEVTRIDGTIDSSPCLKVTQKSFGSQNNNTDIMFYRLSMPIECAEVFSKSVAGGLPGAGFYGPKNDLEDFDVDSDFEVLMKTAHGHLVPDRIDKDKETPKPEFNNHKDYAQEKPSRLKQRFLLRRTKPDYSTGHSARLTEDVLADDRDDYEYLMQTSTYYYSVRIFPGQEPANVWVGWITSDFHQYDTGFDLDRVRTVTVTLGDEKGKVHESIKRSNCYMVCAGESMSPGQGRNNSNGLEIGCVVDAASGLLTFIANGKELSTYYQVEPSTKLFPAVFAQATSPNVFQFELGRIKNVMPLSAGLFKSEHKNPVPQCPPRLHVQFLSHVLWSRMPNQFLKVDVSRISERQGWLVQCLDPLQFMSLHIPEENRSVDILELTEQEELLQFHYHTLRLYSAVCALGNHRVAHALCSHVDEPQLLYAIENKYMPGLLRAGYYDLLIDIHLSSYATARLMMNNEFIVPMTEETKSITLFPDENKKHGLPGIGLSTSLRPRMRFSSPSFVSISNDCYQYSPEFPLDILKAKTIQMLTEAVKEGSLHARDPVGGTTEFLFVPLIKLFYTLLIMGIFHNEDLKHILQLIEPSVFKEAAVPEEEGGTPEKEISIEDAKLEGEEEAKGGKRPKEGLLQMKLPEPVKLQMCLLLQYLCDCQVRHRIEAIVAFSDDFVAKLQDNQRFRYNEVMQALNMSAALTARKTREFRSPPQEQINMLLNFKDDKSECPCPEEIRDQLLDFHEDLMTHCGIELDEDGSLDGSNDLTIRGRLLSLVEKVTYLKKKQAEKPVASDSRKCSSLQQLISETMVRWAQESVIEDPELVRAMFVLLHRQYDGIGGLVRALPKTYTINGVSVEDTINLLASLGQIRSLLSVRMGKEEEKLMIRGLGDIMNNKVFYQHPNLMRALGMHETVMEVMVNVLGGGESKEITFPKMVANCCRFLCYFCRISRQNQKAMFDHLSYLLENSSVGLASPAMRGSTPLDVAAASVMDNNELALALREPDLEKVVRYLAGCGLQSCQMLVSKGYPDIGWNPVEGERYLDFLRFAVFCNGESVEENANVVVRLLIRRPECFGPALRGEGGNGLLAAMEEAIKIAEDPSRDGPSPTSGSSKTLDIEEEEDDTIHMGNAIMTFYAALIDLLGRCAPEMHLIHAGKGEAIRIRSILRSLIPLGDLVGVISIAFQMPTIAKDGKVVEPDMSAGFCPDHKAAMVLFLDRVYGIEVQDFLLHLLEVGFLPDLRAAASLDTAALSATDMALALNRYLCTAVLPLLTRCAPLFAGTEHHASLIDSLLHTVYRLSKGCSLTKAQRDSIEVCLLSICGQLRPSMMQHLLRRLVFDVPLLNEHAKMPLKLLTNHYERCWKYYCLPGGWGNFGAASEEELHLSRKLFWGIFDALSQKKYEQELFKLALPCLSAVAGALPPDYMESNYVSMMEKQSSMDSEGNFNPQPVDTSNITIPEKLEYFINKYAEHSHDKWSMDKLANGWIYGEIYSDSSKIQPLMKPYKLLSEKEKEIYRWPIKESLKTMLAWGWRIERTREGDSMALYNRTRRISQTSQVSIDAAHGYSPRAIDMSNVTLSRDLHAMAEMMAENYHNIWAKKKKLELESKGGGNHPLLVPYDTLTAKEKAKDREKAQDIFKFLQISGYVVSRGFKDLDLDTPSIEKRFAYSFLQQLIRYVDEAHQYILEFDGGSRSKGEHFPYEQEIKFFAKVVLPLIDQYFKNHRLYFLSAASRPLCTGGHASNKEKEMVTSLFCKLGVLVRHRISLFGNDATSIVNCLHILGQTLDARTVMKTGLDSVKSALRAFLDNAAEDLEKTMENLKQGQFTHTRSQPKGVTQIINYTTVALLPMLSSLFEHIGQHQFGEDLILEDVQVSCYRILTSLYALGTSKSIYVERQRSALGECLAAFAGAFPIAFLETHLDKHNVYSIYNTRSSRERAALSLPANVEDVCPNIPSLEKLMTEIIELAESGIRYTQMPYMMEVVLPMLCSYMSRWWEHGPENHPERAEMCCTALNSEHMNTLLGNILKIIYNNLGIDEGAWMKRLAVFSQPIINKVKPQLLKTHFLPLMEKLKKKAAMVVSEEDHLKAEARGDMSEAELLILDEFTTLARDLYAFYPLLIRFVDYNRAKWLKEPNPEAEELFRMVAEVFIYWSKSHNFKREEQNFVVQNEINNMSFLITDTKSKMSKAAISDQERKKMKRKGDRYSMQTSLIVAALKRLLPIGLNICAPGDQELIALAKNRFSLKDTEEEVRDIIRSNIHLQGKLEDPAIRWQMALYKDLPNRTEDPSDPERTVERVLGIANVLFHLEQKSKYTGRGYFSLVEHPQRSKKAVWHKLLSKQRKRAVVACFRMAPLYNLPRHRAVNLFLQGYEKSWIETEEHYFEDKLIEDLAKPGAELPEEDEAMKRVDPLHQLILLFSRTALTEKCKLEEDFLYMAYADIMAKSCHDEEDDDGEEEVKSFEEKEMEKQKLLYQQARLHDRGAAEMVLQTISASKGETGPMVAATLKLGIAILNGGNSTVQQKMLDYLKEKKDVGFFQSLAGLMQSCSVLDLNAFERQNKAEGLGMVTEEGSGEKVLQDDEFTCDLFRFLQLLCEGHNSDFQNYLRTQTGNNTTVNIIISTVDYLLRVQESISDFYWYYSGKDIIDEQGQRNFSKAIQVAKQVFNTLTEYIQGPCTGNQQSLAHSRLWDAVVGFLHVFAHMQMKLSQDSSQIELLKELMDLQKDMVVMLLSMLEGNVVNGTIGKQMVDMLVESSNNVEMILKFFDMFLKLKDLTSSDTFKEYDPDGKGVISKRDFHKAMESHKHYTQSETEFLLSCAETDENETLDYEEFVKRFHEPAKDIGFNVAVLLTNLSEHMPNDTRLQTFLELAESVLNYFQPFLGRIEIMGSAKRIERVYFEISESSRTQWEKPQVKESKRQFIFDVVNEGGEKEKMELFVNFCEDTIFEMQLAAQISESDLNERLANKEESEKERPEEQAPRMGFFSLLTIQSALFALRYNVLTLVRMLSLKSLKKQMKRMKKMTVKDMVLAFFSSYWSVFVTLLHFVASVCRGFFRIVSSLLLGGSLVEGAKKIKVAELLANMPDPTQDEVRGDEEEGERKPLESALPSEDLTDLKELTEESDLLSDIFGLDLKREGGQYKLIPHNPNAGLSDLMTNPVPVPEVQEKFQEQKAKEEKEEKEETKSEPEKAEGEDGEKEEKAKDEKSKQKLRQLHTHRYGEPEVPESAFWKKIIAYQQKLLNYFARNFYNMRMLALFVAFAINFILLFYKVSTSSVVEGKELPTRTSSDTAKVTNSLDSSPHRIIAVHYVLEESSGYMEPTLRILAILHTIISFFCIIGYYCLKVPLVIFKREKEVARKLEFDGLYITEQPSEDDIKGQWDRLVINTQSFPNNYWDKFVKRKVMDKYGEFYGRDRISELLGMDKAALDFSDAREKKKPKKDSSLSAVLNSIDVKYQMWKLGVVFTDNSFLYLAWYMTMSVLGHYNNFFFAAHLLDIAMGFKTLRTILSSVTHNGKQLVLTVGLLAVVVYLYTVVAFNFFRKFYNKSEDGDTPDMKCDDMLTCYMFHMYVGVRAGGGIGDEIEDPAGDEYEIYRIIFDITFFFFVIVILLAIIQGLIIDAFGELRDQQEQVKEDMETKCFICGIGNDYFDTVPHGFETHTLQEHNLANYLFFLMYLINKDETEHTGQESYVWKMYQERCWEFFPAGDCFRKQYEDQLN

As to `CCCCC[C@@H]1OC(=O)[C@@H](C)N(C)C(=O)[C@H](CCCCC)OC(=O)[C@@H](C)N(C)C(=O)[C@H](CCCCC)OC(=O)[C@@H](C)N(C)C1=O` (single isomer, unassigned) [ent-B1], on RyR2, the “Ca2+ decay kinetics (indicator of SERCA2 SR uptake rate)” value is listed as “no effect” and the “time-to-peak of Ca2+ transients” value was “no effect”. At RyR2 (setting [2]), the “amplitude of the caffeine-induced Ca2+ transient” value is “reduced”, the “amplitude of the systolic Ca2+ transient” value was “reduced” and the “diastolic Ca2+ levels” value is given as “reduced”. For the same molecule, the “time of peak plasma concentration after i.p. injection” value in data set [1] (3 mg/kg i.p.) came to 10 min. Moreover, in data set [1] (3 mg/kg i.p., CD1 mice), the “clinical observation during PK experiment” value was “no abnormality”. In data set [1] (3 mg/kg intraperitoneal, CD1 mice), the “ke (elimination rate constant)” value is 0.932 ± 0.139 h⁻¹. Besides, the half-life in data set [1] (male, CD1, mouse, plasma, ip, 3 mg/kg i.p., mice, read-out: mean elimination half-life (t1/2)) was determined as 45.4 min. In addition, in data set [1] (male, CD1, mouse, plasma, ip, 3 mg/kg intraperitoneal, CD1 mice, read-out: T1/2 (elimination half-life) (converted)), the half-life is 45.4 ± 7.38 min. In data set [1] (male, CD1, mouse, plasma, ip, 3 mg/kg i.p., read-out: mean peak plasma concentration (Cmax)), the Cmax is 2300 nM. Further, the Cmax in data set [1] (male, mouse, ip, 3 mg/kg intraperitoneal, CD1 mice, plasma, read-out: Cmax) worked out at 1460 ng/mL. Moreover, in data set [1] (setting [3]), the AUC(0-inf) (commonly the area under the concentration-time curve extrapolated to infinity) worked out at 1020 ± 184 ng·h/mL; the CL/F (as a rule, the apparent clearance, not corrected for the fraction that reaches the circulation) is 50.2 mL/min/kg; the Tmax (as a rule, the time from dosing to the highest level) is 10 min. The Vd/F in data set [1] (male, mouse, plasma, ip, 3 mg/kg intraperitoneal, CD1 mice, read-out: Vz/F) came out at 3.32 ± 1 L/kg. In data set [1] (mouse, in vivo), the “peak plasma concentration in vivo relative to IC50 in cardiomyocytes” value is recorded as “more than 10 fold”.
